Measured values as given in ChEMBL document CHEMBL3792292, “Development of a potent and selective FLT3 kinase inhibitor by systematic expansion of a non-selective fragment-screening hit” (Bioorg Med Chem Lett, 2016).
pIC50: −log10 of the molar value.

Molecular target: T1, Receptor-type tyrosine-protein kinase FLT3 (Homo sapiens, UniProt P36888)
T1 sequence (P36888 whole entry): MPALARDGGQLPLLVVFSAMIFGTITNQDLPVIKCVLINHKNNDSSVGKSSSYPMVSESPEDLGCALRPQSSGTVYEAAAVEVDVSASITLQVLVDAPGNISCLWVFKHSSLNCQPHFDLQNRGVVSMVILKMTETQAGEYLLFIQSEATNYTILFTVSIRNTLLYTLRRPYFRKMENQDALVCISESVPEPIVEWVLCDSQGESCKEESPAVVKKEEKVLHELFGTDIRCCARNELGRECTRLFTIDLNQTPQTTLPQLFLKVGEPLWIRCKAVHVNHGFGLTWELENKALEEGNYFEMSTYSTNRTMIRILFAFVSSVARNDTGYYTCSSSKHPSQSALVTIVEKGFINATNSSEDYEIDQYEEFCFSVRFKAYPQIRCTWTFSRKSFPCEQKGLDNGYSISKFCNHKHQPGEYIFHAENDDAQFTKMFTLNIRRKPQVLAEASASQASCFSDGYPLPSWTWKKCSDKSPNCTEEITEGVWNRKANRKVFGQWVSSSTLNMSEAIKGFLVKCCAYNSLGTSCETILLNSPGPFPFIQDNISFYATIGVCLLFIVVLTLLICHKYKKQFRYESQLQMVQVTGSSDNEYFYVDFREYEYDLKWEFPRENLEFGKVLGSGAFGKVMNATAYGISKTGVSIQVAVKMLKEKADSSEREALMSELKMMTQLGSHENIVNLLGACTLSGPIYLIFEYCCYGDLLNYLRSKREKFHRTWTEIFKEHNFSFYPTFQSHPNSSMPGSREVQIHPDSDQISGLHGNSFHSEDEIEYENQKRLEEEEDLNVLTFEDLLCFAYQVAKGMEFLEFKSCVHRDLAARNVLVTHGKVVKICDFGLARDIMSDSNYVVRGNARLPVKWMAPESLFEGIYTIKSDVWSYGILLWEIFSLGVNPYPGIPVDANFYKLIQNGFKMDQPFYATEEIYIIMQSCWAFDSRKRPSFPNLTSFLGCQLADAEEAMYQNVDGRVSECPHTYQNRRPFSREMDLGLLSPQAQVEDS
Experiment: Inhibition of human N-terminal GST-tagged FLT3 cytoplasmic domain (564 to 993 residues) expressed in baculovirus expression system using 5-FAM-peptide 2 as substrate after 2 hrs by electrophoretic mobility shift assay in presence of ATP

Cc1ccccc1NC(=O)c1n[nH]c2ccccc12
pIC50: < 5.70

COc1ccccc1NC(=O)c1n[nH]c2ccccc12
pIC50: < 5.70

COC(=O)c1ccccc1NC(=O)c1n[nH]c2ccccc12
pIC50: < 5.70

CN(C(=O)c1n[nH]c2ccccc12)c1ccccc1
pIC50: < 5.70

COC(=O)c1cccc(NC(=O)c2n[nH]c3ccccc23)c1
pIC50: < 5.70

O=C(Nc1ccccc1)c1c[nH]c2ccccc12
pIC50: < 5.70

O=C(Nc1ccc(N2CCN(c3ccccc3)CC2)cc1)c1n[nH]c2ccccc12
pIC50: < 5.70

COc1ccc(NC(=O)c2n[nH]c3ccccc23)cc1
pIC50: 6.45

Cn1nc(C(=O)Nc2ccccc2)c2ccccc21
pIC50: < 5.70
